Patent US10405547B2, “Substituted cyclic amides as herbicides” (FMC Corporation, priority 2015, dated 2019)

What was measured:
Assay type in all cases: in vivo
[1] = test system: pigweed (Amaranthus retroflexus); assay: Test A postemergence, pigweed; settings: visual injury, 0 to 100 scale (0 no effect, 100 complete control), approximately 10 days
Source text: (§1) Test A Seeds of plant species selected from barnyardgrass (Echinochloa crus-galli), kochia (Kochia scoparia), ragweed (common ragweed, Ambrosia elatior), ryegrass, Italian (Lolium multiflorum), foxtail, giant (Setaria faberii), and pigweed (Amaranthus retroflexus), were planted into a blend of loam soil and sand and treated preemergence with a directed soil spray using test chemicals formulated in a non-phytotoxic solvent mixture which included a surfactant.
(§2) At the same time, plants selected from these weed species and also blackgrass (Alopecurus myosuroides), galium (catchweed bedstraw, Galium aparine), wheat (Triticum aestivum), and corn (Zea mays) were planted in pots containing the same blend of loam soil and sand and treated with postemergence applications of test chemicals formulated in the same manner. Plants ranged in height from 2 to 10 cm and were in the one- to two-leaf stage for the postemergence treatment. Treated plants and untreated controls were maintained in a greenhouse for approximately 10 days, after which time all treated plants were compared to untreated controls and visually evaluated for injury. Plant response ratings, summarized in Table A, are based on a 0 to 100 scale where 0 is no effect and 100 is complete control. A dash (-) response means no test result.

kochia (Kochia scoparia) [2] = assay: Test A preemergence, kochia; settings: 0 to 100 scale (0 no effect, 100 complete control)
Source text: as §1, §2

[3] = test system: barnyardgrass (Echinochloa crus-galli); assay: Test A preemergence, barnyardgrass; settings: 0 to 100 scale (0 no effect, 100 complete control)
Source text: as §1, §2

[4] = test system: barnyardgrass (Echinochloa crus-galli); assay: Test A postemergence, barnyardgrass; settings: visual injury, 0 to 100 scale (0 no effect, 100 complete control), approximately 10 days
Source text: as §1, §2

[5] = test system: galium (catchweed bedstraw, Galium aparine); assay: Test A postemergence, galium; settings: visual injury, 0 to 100 scale (0 no effect, 100 complete control), approximately 10 days
Source text: as §1, §2

[6] = test system: ragweed (common ragweed, Ambrosia elatior); assay: Test A postemergence, ragweed; settings: visual injury, 0 to 100 scale (0 no effect, 100 complete control), approximately 10 days
Source text: as §1, §2

[7] = test system: pigweed (Amaranthus retroflexus); assay: Test A preemergence, pigweed; settings: 0 to 100 scale (0 no effect, 100 complete control)
Source text: as §1, §2

[8] = test system: blackgrass (Alopecurus myosuroides); assay: Test A postemergence, blackgrass; settings: visual injury, 0 to 100 scale (0 no effect, 100 complete control), approximately 10 days
Source text: as §1, §2

corn (Zea mays) = assay: Test A postemergence, corn; settings: visual injury, 0 to 100 scale (0 no effect, 100 complete control), approximately 10 days
Source text: as §1, §2

[9] = test system: foxtail, giant (Setaria faberii); assay: Test A postemergence, giant foxtail; settings: visual injury, 0 to 100 scale (0 no effect, 100 complete control), approximately 10 days
Source text: as §1, §2

[10] = test system: ragweed (common ragweed, Ambrosia elatior); assay: Test A preemergence, ragweed; settings: 0 to 100 scale (0 no effect, 100 complete control)
Source text: as §1, §2

[11] = test system: ryegrass, Italian (Lolium multiflorum); assay: Test A postemergence, Italian ryegrass; settings: visual injury, 0 to 100 scale (0 no effect, 100 complete control), approximately 10 days
Source text: as §1, §2

[12] = test system: ryegrass, Italian (Lolium multiflorum); assay: Test A preemergence, Italian ryegrass; settings: 0 to 100 scale (0 no effect, 100 complete control)
Source text: as §1, §2

[13] = test system: foxtail, giant (Setaria faberii); assay: Test A preemergence, giant foxtail; settings: 0 to 100 scale (0 no effect, 100 complete control)
Source text: as §1, §2

kochia (Kochia scoparia) [14] = assay: Test A postemergence, kochia; settings: visual injury, 0 to 100 scale (0 no effect, 100 complete control), approximately 10 days
Source text: as §1, §2

[15] = test system: wheat (Triticum aestivum); assay: Test A postemergence, wheat; settings: visual injury, 0 to 100 scale (0 no effect, 100 complete control), approximately 10 days
Source text: as §1, §2

| SMILES | Plant response rating, Pigweed ([1]; 125 g ai/ha) | Plant response rating, Pigweed ([1]; 500 g ai/ha) | Plant response rating, Kochia (kochia (Kochia scoparia) [2]; 125 g ai/ha) | Plant response rating, Kochia (kochia (Kochia scoparia) [2]; 500 g ai/ha) | Plant response rating, Barnyardgrass ([3]; 125 g ai/ha) | Plant response rating, Barnyardgrass ([3]; 500 g ai/ha) | Plant response rating, Barnyardgrass ([4]; 125 g ai/ha) | Plant response rating, Barnyardgrass ([4]; 500 g ai/ha) | Plant response rating, Galium ([5]; 125 g ai/ha) | Plant response rating, Galium ([5]; 500 g ai/ha) | Plant response rating, Ragweed ([6]; 125 g ai/ha) | Plant response rating, Ragweed ([6]; 500 g ai/ha) | Plant response rating, Pigweed ([7]; 125 g ai/ha) | Plant response rating, Pigweed ([7]; 500 g ai/ha) | Plant response rating, Blackgrass ([8]; 125 g ai/ha) | Plant response rating, Blackgrass ([8]; 500 g ai/ha) | Plant response rating, Corn (corn (Zea mays); 125 g ai/ha) | Plant response rating, Corn (corn (Zea mays); 500 g ai/ha) | Plant response rating, Foxtail, Giant ([9]; 125 g ai/ha) | Plant response rating, Foxtail, Giant ([9]; 500 g ai/ha) | other results |
| --- | --- | --- | --- | --- | --- | --- | --- | --- | --- | --- | --- | --- | --- | --- | --- | --- | --- | --- | --- | --- | --- |
| O=C1NCC(c2cccc(Cn3cccn3)c2)C1C(=O)Nc1ccccc1F (stereo not drawn) [Compound 27] | 0 | 0 | 0 | 0 | 0 | 20 | 40 | 70 | 0 | 0 | 0 | 0 | 0 | 0 | 0 | 0 | 0 | 0 | 40 | 50 | Plant response rating, Ragweed ([10]; 125 g ai/ha): 0; Plant response rating, Ragweed ([10]; 500 g ai/ha): 0; Plant response rating, Ryegrass, Italian ([11]; 125 g ai/ha): 0; Plant response rating, Ryegrass, Italian ([11]; 500 g ai/ha): 0; Plant response rating, Ryegrass, Italian ([12]; 125 g ai/ha): 0; Plant response rating, Ryegrass, Italian ([12]; 500 g ai/ha): 0; Plant response rating, Foxtail, Giant ([13]; 125 g ai/ha): 20; Plant response rating, Foxtail, Giant ([13]; 500 g ai/ha): 30; Plant response rating, Kochia (kochia (Kochia scoparia) [14]; 125 g ai/ha): 0; Plant response rating, Kochia (kochia (Kochia scoparia) [14]; 500 g ai/ha): 0; Plant response rating, Wheat ([15]; 125 g ai/ha): 0; Plant response rating, Wheat ([15]; 500 g ai/ha): 0 |
| O=C1NCC(c2cccc(Cn3cccn3)c2)C1C(=O)Nc1ccc(F)cc1F (stereo not drawn) [Compound 28] | 0 | 0 | 0 | 0 | 0 | 30 | 0 | 20 | 0 | 0 | 0 | 0 | 0 | 0 | 0 | 0 | 0 | 0 | 0 | 20 | Plant response rating, Ragweed ([10]; 125 g ai/ha): 0; Plant response rating, Ragweed ([10]; 500 g ai/ha): 0; Plant response rating, Ryegrass, Italian ([11]; 125 g ai/ha): 0; Plant response rating, Ryegrass, Italian ([11]; 500 g ai/ha): 0; Plant response rating, Ryegrass, Italian ([12]; 125 g ai/ha): 0; Plant response rating, Ryegrass, Italian ([12]; 500 g ai/ha): 0; Plant response rating, Foxtail, Giant ([13]; 125 g ai/ha): 0; Plant response rating, Foxtail, Giant ([13]; 500 g ai/ha): 30; Plant response rating, Kochia (kochia (Kochia scoparia) [14]; 125 g ai/ha): 0; Plant response rating, Kochia (kochia (Kochia scoparia) [14]; 500 g ai/ha): 0; Plant response rating, Wheat ([15]; 125 g ai/ha): 0; Plant response rating, Wheat ([15]; 500 g ai/ha): 0 |
| O=C1NCC(c2cccc(Cn3cccn3)c2)C1C(=O)Nc1ccccc1Cl (stereo not drawn) [Compound 29] | 0 | 0 | 0 | 0 | 0 | 40 | 0 | 20 | 0 | 0 | 0 | 0 | 0 | 0 | 0 | 0 | 0 | 0 | 0 | 20 | Plant response rating, Ragweed ([10]; 125 g ai/ha): 0; Plant response rating, Ragweed ([10]; 500 g ai/ha): 0; Plant response rating, Ryegrass, Italian ([11]; 125 g ai/ha): 0; Plant response rating, Ryegrass, Italian ([11]; 500 g ai/ha): 0; Plant response rating, Ryegrass, Italian ([12]; 125 g ai/ha): 0; Plant response rating, Ryegrass, Italian ([12]; 500 g ai/ha): 0; Plant response rating, Foxtail, Giant ([13]; 125 g ai/ha): 0; Plant response rating, Foxtail, Giant ([13]; 500 g ai/ha): 40; Plant response rating, Kochia (kochia (Kochia scoparia) [14]; 125 g ai/ha): 0; Plant response rating, Kochia (kochia (Kochia scoparia) [14]; 500 g ai/ha): 0; Plant response rating, Wheat ([15]; 125 g ai/ha): 0; Plant response rating, Wheat ([15]; 500 g ai/ha): 0 |
